## CCCCCNS(=O)(=O)NC(=O)OCc1ccc(OCCOC)cc1Oc1ncc(C(F)(F)F)cc1Cl [Example 61, 2-{[3-chloro-5-(trifluoromethyl)pyridin-2-yl]oxy}-4-(2-methoxyethoxy)benzyl [(pentylamino)sulfonyl]carbamate]
  melting point: 153 to 155 °C

## CCCCCS(=O)(=O)NC(=O)OCc1ccc(OCCCC)cc1Oc1ncc(C(F)(F)F)cc1Cl [Example 62, 4-butoxy-2-{[3-chloro-5-(trifluoromethyl)pyridin-2-yl]oxy}benzyl (pentylsulfonyl)carbamate]
  melting point: 124.5 to 125.5 °C

## CCCCCS(=O)(=O)NC(=O)OCc1ccc(OC(C)C)cc1Oc1ncc(C(F)(F)F)cc1Cl [Example 63, 2-{[3-chloro-5-(trifluoromethyl)pyridin-2-yl]oxy}-4-isopropoxybenzyl (pentylsulfonyl)carbamate]
  melting point: 70 to 73 °C

## COCCOc1ccc(COC(=O)NS(=O)(=O)c2ccc(Cl)cc2)c(Oc2ncc(C(F)(F)F)cc2Cl)c1 [Example 65, 2-{[3-chloro-5-(trifluoromethyl)pyridin-2-yl]oxy}-4-(2-methoxyethoxy)benzyl [(4-chlorophenyl)sulfonyl]carbamate]
  melting point: 112 to 115 °C

## CCCCNS(=O)(=O)NC(=O)OCc1ccc(OCCOC)cc1Oc1ncc(C(F)(F)F)cc1Cl [Example 66, 2-{[3-chloro-5-(trifluoromethyl)pyridin-2-yl]oxy}-4-(2-methoxyethoxy)benzyl [(butylamino)sulfonyl]carbamate]
  melting point: 164 to 165 °C

## COCCOc1ccc(COC(=O)NS(=O)(=O)NCC2CC2)c(Oc2ncc(C(F)(F)F)cc2Cl)c1 [Example 67, 2-{[3-chloro-5-(trifluoromethyl)pyridin-2-yl]oxy}-4-(2-methoxyethoxy)benzyl {[(cyclopropylmethyl)amino]sulfonyl}carbamate]
  melting point: 150 to 150.5 °C

## COCCOc1ccc(COC(=O)NS(=O)(=O)Nc2ccc(Cl)cc2)c(Oc2ncc(C(F)(F)F)cc2Cl)c1 [Example 68, 2-{[3-chloro-5-(trifluoromethyl)pyridin-2-yl]oxy}-4-(2-methoxyethoxy)benzyl {[(4-chlorophenyl)amino]sulfonyl}carbamate]
  melting point: 159 °C (dec.)

## COCCOc1ccc(CCC(=O)NS(N)(=O)=O)c(Oc2ncc(C(F)(F)F)cc2Cl)c1 [Example 73, N-(aminosulfonyl)-3-[2-{[3-chloro-5-(trifluoromethyl)pyridin-2-yl]oxy}-4-(2-methoxyethoxy)phenyl]propanamide]
  melting point: 158 to 159 °C

## CCCCCS(=O)(=O)NC(=O)CCCc1ccc(OCCOC)cc1Oc1ncc(C(F)(F)F)cc1Cl [Example 74, 4-[2-{[3-chloro-5-(trifluoromethyl)pyridin-2-yl]oxy}-4-(2-methoxyethoxy)phenyl]-N-(pentylsulfonyl)butanamide]
  melting point: 96 to 97 °C

## COCCCNS(=O)(=O)NC(=O)OCc1ccc(OCCOC)cc1Oc1ncc(C(F)(F)F)cc1Cl [Example 75, 2-{[3-chloro-5-(trifluoromethyl)pyridin-2-yl]oxy}-4-(2-methoxyethoxy)benzyl {[(3-methoxypropyl)amino]sulfonyl}carbamate]
  melting point: 149 to 149.5 °C

## CCOCCNS(=O)(=O)NC(=O)OCc1ccc(OCCOC)cc1Oc1ncc(C(F)(F)F)cc1Cl [Example 76, 2-{[3-chloro-5-(trifluoromethyl)pyridin-2-yl]oxy}-4-(2-methoxyethoxy)benzyl {[(2-ethoxyethyl)amino]sulfonyl}carbamate]
  melting point: 142.5 to 143 °C

## CCCCCS(=O)(=O)NC(=O)CC(C)c1ccc(OCCOC)cc1Oc1ncc(C(F)(F)F)cc1Cl (stereo not shown) [Example 77, 3-[2-{[3-chloro-5-(trifluoromethyl)pyridin-2-yl]oxy}-4-(2-methoxyethoxy)phenyl]-N-(pentylsulfonyl)butanamide]
  melting point: 136.9 to 137.1 °C

## COCCCS(=O)(=O)NC(=O)CC(C)c1ccc(OCCOC)cc1Oc1ncc(C(F)(F)F)cc1Cl (stereo not shown) [Example 78, 3-[2-{[3-chloro-5-(trifluoromethyl)pyridin-2-yl]oxy}-4-(2-methoxyethoxy)phenyl]-N-[(3-methoxypropyl)sulfonyl]butanamide]
  melting point: 107 to 109 °C

## CCCCCS(=O)(=O)NC(=O)CCc1cc(OC(C)C)nn1Cc1ccc(F)cc1F [Example 80, 3-[1-(2,4-difluorobenzyl)-3-isopropoxy-1H-pyrazol-5-yl]-N-(pentylsulfonyl)propanamide]
  melting point: 107 to 108 °C

## CC(C)Oc1cc(CCC(=O)NS(=O)(=O)c2ccccc2)n(Cc2ccc(Cl)cc2Cl)n1 [Example 82, 3-[1-(2,4-dichlorobenzyl)-3-isopropoxy-1H-pyrazol-5-yl]-N-(phenylsulfonyl)propanamide]
  melting point: 184 to 185 °C

## CC(C)Oc1cc(CCC(=O)NS(=O)(=O)c2ccc(C(F)(F)F)cc2)n(Cc2ccc(Cl)cc2Cl)n1 [Example 83, 3-[1-(2,4-dichlorobenzyl)-3-isopropoxy-1H-pyrazol-5-yl]-N-{[4-(trifluoromethyl)phenyl]sulfonyl}propanamide]
  melting point: 167 to 169 °C

## CCCS(=O)(=O)NC(=O)CCc1cc(OC(C)C)nn1Cc1ccc(Cl)cc1Cl [Example 85, 3-[1-(2,4-dichlorobenzyl)-3-isopropoxy-1H-pyrazol-5-yl]-N-(propylsulfonyl)propanamide]
  melting point: 124 to 126 °C

## CCCCCCS(=O)(=O)NC(=O)CCc1cc(OC(C)C)nn1Cc1ccc(Cl)cc1Cl [Example 87, 3-[1-(2,4-dichlorobenzyl)-3-isopropoxy-1H-pyrazol-5-yl]-N-(hexylsulfonyl)propanamide]
  melting point: 103 to 106 °C

## Cc1ccccc1S(=O)(=O)NC(=O)CCc1cc(OC(C)C)nn1Cc1ccc(Cl)cc1Cl [Example 88, 3-[1-(2,4-dichlorobenzyl)-3-isopropoxy-1H-pyrazol-5-yl]-N-[(2-methylphenyl)sulfonyl]propanamide]
  melting point: 165 to 166 °C

## CC(C)Oc1cc(CCC(=O)NS(=O)(=O)C(C)C)n(Cc2ccc(Cl)cc2Cl)n1 [Example 89, 3-[1-(2,4-dichlorobenzyl)-3-isopropoxy-1H-pyrazol-5-yl]-N-(isopropylsulfonyl)propanamide]
  melting point: 135 to 136 °C

## CC(C)Oc1cc(CCC(=O)NS(=O)(=O)C2CCCCC2)n(Cc2ccc(Cl)cc2Cl)n1 [Example 90, N-(cyclohexylsulfonyl)-3-[1-(2,4-dichlorobenzyl)-3-isopropoxy-1H-pyrazol-5-yl]propanamide]
  melting point: 137 to 138 °C

## CC(C)Oc1cc(CCC(=O)NS(=O)(=O)CCCc2ccccc2)n(Cc2ccc(Cl)cc2Cl)n1 [Example 91, 3-[1-(2,4-dichlorobenzyl)-3-isopropoxy-1H-pyrazol-5-yl]-N-[(3-phenylpropyl)sulfonyl]propanamide]
  melting point: 132 to 134 °C

## CC(C)CCS(=O)(=O)NC(=O)CCc1cc(OC(C)C)nn1Cc1ccc(Cl)cc1Cl [Example 92, 3-[1-(2,4-dichlorobenzyl)-3-isopropoxy-1H-pyrazol-5-yl]-N-[(3-methylbutyl)sulfonyl]propanamide]
  melting point: 143 to 145 °C

## CCCCCS(=O)(=O)NC(=O)/C=C/c1cc(OCCCC)nn1Cc1ccc(Cl)cc1Cl [Example 98, (2E)-3-[3-butoxy-1-(2,4-dichlorobenzyl)-1H-pyrazol-5-yl]-N-(pentylsulfonyl)acrylamide]
  melting point: 95 to 98 °C

## CCCCOc1cc(/C=C/C(=O)NS(=O)(=O)CCC(C)C)n(Cc2ccc(Cl)cc2Cl)n1 [Example 99, (2E)-3-[3-butoxy-1-(2,4-dichlorobenzyl)-1H-pyrazol-5-yl]-N-[(3-methylbutyl)sulfonyl]acrylamide]
  melting point: 119 to 120 °C

## CCCCCS(=O)(=O)NC(=O)/C=C/c1cc(OCCCC)nn1Cc1ccc(C(F)(F)F)cc1 [Example 103, (2E)-3-{3-butoxy-1-[4-(trifluoromethyl)benzyl]-1H-pyrazol-5-yl}-N-(pentylsulfonyl)acrylamide]
  melting point: 159 to 160 °C

## CCCCCS(=O)(=O)NC(=O)CCc1cc(OCc2nnc(C)o2)nn1Cc1ccc(Cl)cc1Cl [Example 105, 3-{1-(2,4-dichlorobenzyl)-3-[(5-methyl-1,3,4-oxadiazol-2-yl)methoxy]-1H-pyrazol-5-yl}-N-(pentylsulfonyl)propanamide]
  melting point: 156 to 158 °C

## CCCCCS(=O)(=O)NC(=O)/C=C/c1cc(OCCCC)nn1Cc1ccc(C(F)(F)F)cc1Cl [Example 106, (2E)-3-{3-butoxy-1-[2-chloro-4-(trifluoromethyl)benzyl]-1H-pyrazol-5-yl}-N-(pentylsulfonyl)acrylamide]
  melting point: 130 to 132 °C

## CCCCCS(=O)(=O)NC(=O)CCc1cc(OCCCC)nn1Cc1ccc(C(F)(F)F)cc1Cl [Example 107, 3-{3-butoxy-1-[2-chloro-4-(trifluoromethyl)benzyl]-1H-pyrazol-5-yl}-N-(pentylsulfonyl)propanamide]
  melting point: 131 to 133 °C

## CCCCCS(=O)(=O)NC(=O)/C=C/c1cc(OCCOC)nn1Cc1ccc(Cl)cc1Cl [Example 109, (2E)-3-[1-(2,4-dichlorobenzyl)-3-(2-methoxyethoxy)-1H-pyrazol-5-yl]-N-(pentylsulfonyl)acrylamide]
  melting point: 82 to 85 °C

## COCCOc1cc(/C=C/C(=O)NS(=O)(=O)CCC(C)C)n(Cc2ccc(Cl)cc2Cl)n1 [Example 110, (2E)-3-[1-(2,4-dichlorobenzyl)-3-(2-methoxyethoxy)-1H-pyrazol-5-yl]-N-[(3-methylbutyl)sulfonyl]acrylamide]
  melting point: 110 to 114 °C

## CCCCCS(=O)(=O)NC(=O)/C=C/c1cc(OCC2(C)COC2)nn1Cc1ccc(C(F)(F)F)cc1Cl [Example 113, (2E)-3-{1-[2-chloro-4-(trifluoromethyl)benzyl]-3-[(3-methyloxetan-3-yl)methoxy]-1H-pyrazol-5-yl}-N-(pentylsulfonyl)acrylamide]
  melting point: 144 to 147 °C

## COCCCS(=O)(=O)NC(=O)/C=C/c1cc(OC(C)C)nn1Cc1ccc(C(F)(F)F)cc1Cl [Example 115, (2E)-3-{1-[2-chloro-4-(trifluoromethyl)benzyl]-3-isopropoxy-1H-pyrazol-5-yl}-N-[(3-methoxypropyl)sulfonyl]acrylamide]
  melting point: 138 to 139 °C

## CCCCCS(=O)(=O)NC(=O)/C=C/c1cc(OC2CCOCC2)nn1Cc1ccc(Cl)cc1Cl [Example 116, (2E)-3-[1-(2,4-dichlorobenzyl)-3-(tetrahydro-2H-pyran-4-yloxy)-1H-pyrazol-5-yl]-N-(pentylsulfonyl)acrylamide]
  melting point: 154 to 157 °C
